Data on 6 compounds can be found in ChEMBL document CHEMBL6115010, “Targeting glioma with heteroaromatic alkaloids: A review of potential therapeutics” (Bioorg Med Chem, 2025).

The nature of experiment [1]: Cytotoxicity against human U-343MG cells. In kind it is functional, cell-based.
A short description of experiment [2]: Induction of apoptosis in human U373 MG cells at 1 uM relative to control. In kind it is functional, U-373MG ATCC.
The subject of experiment [3] is H4. Briefly: Antiproliferative activity against human H4 cells assessed as reduction in cell viability incubated for 72 hrs by Presto-Blue cell viability assay. In kind it is functional, cell-based. Conditions: H4, 72 h.
In experiment [4] the test system is U-87 MG. The experiment is described as follows: Antiproliferative activity against human U-87 MG cells assessed as reduction in cell viability incubated for 72 hrs by Presto-Blue cell viability assay. In kind it is functional, cell-based, U-87MG ATCC.
For experiment [5], the target named is T1, Dual specificity tyrosine-phosphorylation-regulated kinase 1A (Homo sapiens, UniProt Q13627). Briefly: Inhibition of DYRK1A (unknown origin) incubated for 2 hrs in presence of [gamma-33P]-ATP by radioactivity based assay.
Experiment [6] concerns U-87 MG. The experiment is described as follows: Antitumor activity against human U-87 MG cells xenografted in mouse model assessed as reduction in tumor growth at 60 mg/kg, ip administered once daily for 5 days relative to control. In kind it is functional, U-87MG ATCC. Also noted: scale not given: the % may be the effect or the level left. As to conditions: time 5 day. (In general: In xenograft studies the graft and the host belong to different species.)

The target in experiment [7] is T1, Dual specificity tyrosine-phosphorylation-regulated kinase 1A. The experiment is described as follows: Inhibition of DYRK1A (unknown origin) by TR-FRET assay. In general terms: TR-FRET usually uses a lanthanide donor and a delayed reading to cut background.
Experiment [8] has as its system U-251. Briefly: Induction of apoptosis in human U-251MG cells assessed as increase in PARP cleavage at 12.5 to 100 uM incubated for 24 hrs by Western blot analysis. Conditions: dose 12.5-100 µM. Type of experiment: functional. In general terms: In western blotting, separated proteins are transferred to a membrane and probed.
The subject of experiment [9] is U-87 MG. The experiment is described as follows: Antitumor activity against human U-87 MG cells xenografted in mouse model assessed as reduction in tumor growth at 15 mg/kg, ip administered once daily for 5 days relative to control. In kind it is functional, U-87MG ATCC. Also noted: scale not given: the % may be the effect or the level left. Conditions: time 5 day.

In experiment [10] the test system is U-87 MG. Briefly: Antiproliferative activity against human U-87 MG cells assessed as reduction in cell viability incubated for 72 hrs by WST-8 reagent based assay. Type of experiment: functional, U-87MG ATCC.
The subject of experiment [11] is U-251. Briefly: Cytotoxicity against human U-251MG cells assessed as reduction in cell growth incubated for 72 hrs by MTT assay. In kind it is functional, cell-based. As to conditions: U-251, 72 h.
The test system of experiment [12] is T98G. Briefly: Antiproliferative activity against human T98G cells assessed as reduction in cell viability incubated for 72 hrs by WST-8 reagent based assay. In kind it is functional.
Experiment [13] relates to U-87 MG. Briefly: Cytotoxicity against human U-87 MG cells assessed as reduction in cell growth measured for 48 hrs by MTT assay. Type of experiment: functional, cell-based, U-87MG ATCC.
Experiment [14] has as its system U-251. The experiment is described as follows: Antitumor activity against human U-251MG cells xenografted in BALB/c nude mouse assessed as reduction in tumor growth at 8 mg/kg, ip administered once daily and measured after 28 days relative to control. Conditions: U-251, 672 h, time 28 day, read-out: TGI. In kind it is functional.
In experiment [15] the test system is U-251. The experiment is described as follows: Antitumor activity against human U-251MG cells xenografted in BALB/c nude mouse assessed as reduction in tumor growth at 4 mg/kg, ip administered once daily and measured after 28 days relative to control. Type of experiment: functional. Conditions: U-251, 672 h, time 28 day, read-out: TGI.
Experiment [16] concerns U-251. Briefly: Cytotoxicity against human U-251MG cells assessed as reduction in cell growth measured for 48 hrs by MTT assay. Type of experiment: functional, cell-based. Conditions: U-251, 48 h.
Experiment [17] relates to U-87 MG. Briefly: Antiproliferative activity against human U-87 MG cells measured for 48 hrs by MTT assay. Type of experiment: functional, cell-based, U-87MG ATCC.
Experiment [18] deals with U-87 MG. The experiment is described as follows: Antiproliferative activity against human U-87 MG cells by MTT assay. Type of experiment: functional, cell-based, U-87MG ATCC.
Experiment [19] relates to C6. Briefly: Antiproliferative activity against rat C6 cells by MTT assay. Type of experiment: functional, cell-based.
A short description of experiment [20]: Cytotoxicity against human M059K cells assessed as reduction in cell viability incubated for 72 hrs by MTT assay. In kind it is functional, cell-based.
The test system of experiment [21] is M059J. The experiment is described as follows: Cytotoxicity against human M059J cells assessed as reduction in cell viability incubated for 72 hrs by MTT assay. Type of experiment: functional, cell-based.

In general, IC50 refers to the concentration at which inhibition is half-maximal. By EC50 is commonly meant the concentration giving half of the maximal effect.

As to `C=C[C@H]1CN2CCc3c([nH]c4c([C@@H]5CCCN5C)c(O)ccc34)[C@@H]2C[C@@H]1C[C@H]1c2[nH]c3ccccc3c2CCN1C`, in experiment [1], the IC50 is roughly 1 µM. This compound also registered an Activity in [2] of 80%.
Take `Cc1nccc2c1[nH]c1cc(O)ccc12`: the half-inhibitory concentration (IC50) in [3] turned out to be 10.9 µM; in experiment [4], 19.1 µM; in [5] it was 0.016 µM; in experiment [7] it was 0.07 µM. In addition, the Activity is listed as 38.1% in experiment [6], 486% in [8] and 28.2% in experiment [9].
Turning to `COc1ccc2c3c(c4cc(OC)c(OC)cc4c2c1)CN1CCC[C@H]1C3`, the 50% effective concentration (EC50) was determined as 29 µM in experiment [10] and 40 µM in experiment [12]. Moreover, the half-maximal inhibitory concentration (IC50) in [11] was found to be 3.34 µM.
As to `c1ccc2c(c1)[nH]c1c2cc[n+]2cc3c(cc12)CCCC3`, the IC50 in [13] came out at 4.71 µM; in [16] it was 4.98 µM. For the same compound, in experiment [14], the inhibition in vivo at 8 mg/kg is 58.9%. For the same compound, the inhibition in vivo at 4 mg/kg in [15] came to 49.5%.
As to `CN1c2ccccc2C(=O)N2CCc3c([nH]c4ccccc34)[C@H]21`, the values for the 50% inhibitory concentration (IC50) in experiment [17], in experiment [18] and in [19] were 5.21 µM, 3.7 µM and 4.3 µM, respectively.
As for `COc1cc2c(cc1O)CCN[C@]21CS[C@@H]2c3c(OC(C)=O)c(C)c4c(c3[C@@H](COC1=O)N1[C@@H]2[C@H]2c3c(cc(C)c(OC)c3O)C[C@@H]([C@@H]1O)N2C)OCO4`, the results for the IC50 in experiment [20] and in [21] were 0.0002 µM and 0.041 nM, respectively.
